Measurements: US7208514B2, “Tumorigenesis inhibitor” (Mitsubishi Pharma Corporation, priority 2003, dated 2007)

Assays:
[1] = test system: lipid peroxide production in homogenate of the brain; test: Examination of antioxidative effect (thiobarbituric acid reaction product, lipid peroxide, in brain homogenate); format: biochemical, Wistar rat
Method: The absorbance of a thiobarbituric acid reaction product (lipid peroxide) generated 1 hr after the incubation was measured.

[2] = test system: dimethylhydrazine-induced colonic ACF and colonic mucosal cell growth; test: Suppressive effect on the formation of dimethylhydrazine-induced colonic ACF and cancer cell growth; format: in vivo, male ICR mice; conditions: for number of colonic ACF: mean ± standard error, control 30.7 ± 3.3
[3] = literature statement; cited from earlier work
[4] = test system: azoxymethane-induced aberrant crypt foci in colon; test: Suppressive effect on the formation of azoxymethane-induced aberrant crypt foci in colon; format: in vivo, male ICR mice; conditions: for number of colonic ACF / body weight: mean ± standard error; for number of colonic ACF: control 10.3 ± 1.7; for body weight: mixed diet for 5 weeks, azoxymethane-treated mice
[5] = Y-700 10 and 20 mg/kg mixed diet, 10 weeks
[6] = Y-700 mixed diet 10 and 20 mg/kg diet
[7] = Y-700 5-20 mg/kg mixed diet, 5 weeks

CC(C)(C)COc1ccc(-n2cc(C(=O)O)cn2)cc1C#N [Y-700, 1-(3-cyano-4-neopentyloxyphenyl)pyrazole-4-carboxylic acid]
change in production amount of lipid peroxide attributable to addition of Y-700 ([1]; 0.5-20 μg/ml): No change | antioxidative effect ([1]; conclusion in words): no antioxidative effect | number of colonic ACF ([2]; Y-700 10 mg/kg diet, 10 weeks): 20.7 ± 2.0 n/mouse | number of colonic ACF ([2]; Y-700 20 mg/kg diet, 10 weeks): 22.9 ± 1.4 n/mouse | body weight change attributable to Y-700 administration [2, 5]: nor was observed body weight change | feed intake [2, 5]: No change | cell growth rate of the surrounding areas, change in words [2, 6]: significant decreases | number of colonic ACF, change in words [2, 6]: significant decreases | radical removing (scavenging) effect [3]: free of radical scavenging effect | number of colonic ACF ([4]; Y-700 5 mg/kg diet, 5 weeks): 7.0 ± 1.3 n/mice | body weight ([4]; Y-700 5 mg/kg diet): 40.4 ± 1.2 g | number of colonic ACF ([4]; Y-700 10 mg/kg diet, 5 weeks): 7.0 ± 0.7 n/mice | body weight ([4]; Y-700 10 mg/kg diet): 39.9 ± 1.4 g | number of colonic ACF ([4]; Y-700 15 mg/kg diet, 5 weeks): 6.5 ± 0.6 n/mice | body weight ([4]; Y-700 15 mg/kg diet): 40.3 ± 0.9 g | number of colonic ACF ([4]; Y-700 20 mg/kg diet, 5 weeks): 5.5 ± 0.7 n/mice | body weight ([4]; Y-700 20 mg/kg diet): 39.9 ± 1.0 g | body weight change attributable to Y-700 administration [4, 7]: nor was observed body weight change | feed intake [4, 7]: No change | number of colonic ACF, trend ([4]; Y-700 mixed diet 5-20 mg/kg diet): dose-dependent decreases | effect on the increase in the number of colonic ACF induced by azoxymethane ([4]; conclusion in words): suppressive effect

Oc1ncnc2[nH]ncc12 [allopurinol, reference compound]
radical removing (scavenging) effect [3]: shows a radical removing (scavenging) effect
